Assay results as given in BindingDB's records for doi:10.1016/j.bmcl.2010.04.142 (Glaxosmithkline, 2010).
pKi: −log10 of the molar value.

How the values were obtained:
[1] = Antagonist activity at CCR2 in human THP1 cells assessed as inhibition of CCL2-induced chemotaxis in presence of 1% human serum
[2] = Antagonist activity at CCR2 in human THP1 cells assessed as inhibition of CCL2-induced chemotaxis in presence of 1% fetal bovine serum

pKi [1] | pKi [2] | SMILES
4.90 | 7.20 | O=C(O)c1ccccc1Oc1c(F)cc(C(F)(F)F)cc1NS(=O)(=O)c1ccc(Cl)cc1
6.40 | 6.40 | O=C(O)c1ccccc1Oc1ccccc1NS(=O)(=O)c1ccc(Cl)cc1
5.00 | 6.80 | O=C(O)c1c(F)cccc1Oc1ccc(C(F)(F)F)cc1NS(=O)(=O)c1ccc(Cl)cc1
